Data reported in patent publication US6737383B1, “Herbicidal oxadiazolidines” (priority 1999, dated 2004).

Key:
[1] = test system: giant foxtail; assay: Test B pre/postemergence giant foxtail; type: in vivo, Setaria faberii
How it was run: (§1)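 Response is a visual 0-to-10 score relative to untreated plants, where 0 means no effect and 10 means complete control, taken twelve to sixteen days after application. Treatments went onto soil at planting and onto foliage of 1- to 4-leaf plants, using a surfactant-containing non-phytotoxic solvent.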

[2] = test system: duck salad; assay: Test B flood test duck salad; type: in vivo, Heteranthera limosa
How it was run: (§2)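 Plants were grown to the 2-leaf stage before treatment with test chemical, then held in a greenhouse for twelve to sixteen days. Injury was visually rated against untreated controls on a 0–10 scale, where 0 is no effect and 10 is complete control.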

[3] = test system: rape; assay: Test B pre/postemergence rape; type: in vivo, Brassica napus
How it was run: as §1

[4] = test system: soybean; assay: Test B pre/postemergence soybean; type: in vivo, Glycine max
How it was run: as §1

[5] = test system: cocklebur; assay: Test B pre/postemergence cocklebur; type: in vivo, Xanthium strumarium
How it was run: as §1

[6] = test system: crabgrass; assay: Test B pre/postemergence crabgrass; type: in vivo, Digitaria sanguinalis
How it was run: as §1

[7] = test system: bamyardgrass; assay: Test B flood test barnyardgrass; type: in vivo, Echinochloa crus-galli
How it was run: as §2

[8] = test system: corn; assay: Test B pre/postemergence corn; type: in vivo, Zea mays
How it was run: as §1

[9] = test system: morningglory; assay: Test B pre/postemergence morningglory; type: in vivo, Ipomoea hederacea
How it was run: as §1

[10] = test system: wild oat; assay: Test B pre/postemergence wild oat; type: in vivo, Avena fatua
How it was run: as §1

[11] = test system: wheat; assay: Test B pre/postemergence wheat; type: in vivo, Triticum aestivum
How it was run: as §1

[12] = test system: velvetleaf; assay: Test B pre/postemergence velvetleaf; type: in vivo, Abutilon theophrasti
How it was run: as §1

[13] = test system: sugar beet; assay: Test B pre/postemergence sugar beet; type: in vivo, Beta vulgaris
How it was run: as §1

[14] = test system: surinam grass; assay: Test B pre/postemergence surinam grass; type: in vivo, Brachiaria decumbens
How it was run: as §1

[15] = test system: bedstraw; assay: Test B pre/postemergence bedstraw; type: in vivo, Galium aparine
How it was run: as §1

[16] = test system: pigweed; assay: Test B pre/postemergence pigweed; type: in vivo, Amaranthus retroflexus
How it was run: as §1

[17] = test system: blackgrass; assay: Test B pre/postemergence blackgrass; type: in vivo, Alopecurus myosuroides
How it was run: as §1

[18] = test system: rice; assay: Test B flood test rice; type: in vivo, Oryza sativa
How it was run: as §2

[19] = test system: purple nutsedge; assay: Test B pre/postemergence purple nutsedge; type: in vivo, Cyperus rotundus; conditions: Postemergence
How it was run: as §1

[20] = test system: smallflower flatsedge; assay: Test B flood test smallflower flatsedge; type: in vivo, Cyperus difformis
How it was run: as §2

[21] = Preemergence, Rate 62 g/ha, scale of 0 to 10 where 0 is no effect and 10 is complete control
[22] = Preemergence, Rate 250 g/ha, scale of 0 to 10 where 0 is no effect and 10 is complete control
[23] = Preemergence, Rate 500 g/ha, scale of 0 to 10 where 0 is no effect and 10 is complete control
[24] = Rate 125 g/ha, Preemergence, scale of 0 to 10 where 0 is no effect and 10 is complete control
[25] = Rate 500 g/ha, Postemergence, scale 0 to 10, 0 no effect, 10 complete control
[26] = Rate 62 g/ha, headed Pre-emergence (flood test species), scale 0 to 10 (0 no effect, 10 complete control)
[27] = Rate 125 g/ha, Pre-emergence, flood test species, scale 0 to 10 where 0 is no effect and 10 is complete control
[28] = Rate 250 g/ha, Pre-emergence, flood-test species, scale 0 to 10, 0 is no effect, 10 is complete control
[29] = Rate 500 g/ha, Pre-emergence, flood test species, scale 0 to 10 (0 no effect, 10 complete control)
[30] = Rate 62 g/ha, Postemergence, scale of 0 to 10 where 0 is no effect and 10 is complete control
[31] = Rate 125 g/ha, Postemergence, scale 0 to 10

`COCCOCn1c(=O)on(C(=O)N(c2ccc(F)cc2)C(C)C)c1=O` [Compound 258] was tested, and the “Giant foxtail plant response rating” value [1, 21] was 8, the “Giant foxtail plant response rating” value [1, 22] was 10 and the “Plant response rating, Giant foxtail” value [1, 23] was 10. For the same molecule, the “Giant foxtail plant response rating” value [1, 24] was 9, the “Plant response rating (0 to 10; 0 is no effect, 10 is complete control), Giant foxtail” value ([1]; Rate 250 g/ha, Postemergence) was 4 and the “Giant foxtail plant response rating” value [1, 25] was 7. For the same molecule, the “Ducksalad plant response rating” value [2, 26] was 0, the “Ducksalad plant response rating” value [2, 27] was 0 and the “Ducksalad plant response rating” value [2, 28] was 0. For the same molecule, the “Ducksalad plant response rating” value [2, 29] was 0, the “Rape plant response rating” value [3, 21] was 0 and the “Rape plant response rating” value [3, 22] was 5. For the same molecule, the “Plant response rating, Rape” value [3, 23] was 7, the “Rape plant response rating” value [3, 24] was 1 and the “Plant response rating (0 to 10; 0 is no effect, 10 is complete control), Rape” value ([3]; Rate 250 g/ha, Postemergence) was 0. The “Rape plant response rating” value [3, 25] was 3, the “Soybean plant response rating” value [4, 21] was 0 and the “Soybean plant response rating” value [4, 22] was 2. For the same molecule, the “Plant response rating, Soybean” value [4, 23] was 3, the “Soybean plant response rating” value [4, 24] was 0 and the “Soybean plant response rating” value [4, 25] was 6. For the same molecule, the “Cocklebur plant response rating” value [5, 21] was 0, the “Cocklebur plant response rating” value [5, 22] was 0 and the “Plant response rating, Cocklebur” value [5, 23] was 0. For the same molecule, the “Cocklebur plant response rating” value [5, 30] was 0, the “Cocklebur plant response rating” value [5, 31] was 0 and the “Cocklebur plant response rating” value [5, 24] was 0. For the same molecule, the “Plant response rating (0 to 10; 0 is no effect, 10 is complete control), Cocklebur” value ([5]; Rate 250 g/ha, Postemergence) was 0, the “Cocklebur plant response rating” value [5, 25] was 1 and the “Crabgrass plant response rating” value [6, 21] was 3. The “Crabgrass plant response rating” value [6, 22] was 9, the “Plant response rating, Crabgrass” value [6, 23] was 10 and the “Crabgrass plant response rating” value [6, 24] was 7. The “Plant response rating (0 to 10; 0 is no effect, 10 is complete control), Crabgrass” value ([6]; Rate 250 g/ha, Postemergence) was 2, the “Crabgrass plant response rating” value [6, 25] was 5 and the “Barnyardgrass plant response rating” value [7, 26] was 0. The “Barnyardgrass plant response rating” value [7, 27] was 0, the “Barnyardgrass plant response rating” value [7, 28] was 0 and the “Barnyardgrass plant response rating” value [7, 29] was 0. For the same molecule, the “Corn plant response rating” value [8, 21] was 0, the “Corn plant response rating” value [8, 22] was 3 and the “Plant response rating, Corn” value [8, 23] was 5. For the same molecule, the “Corn plant response rating” value [8, 30] was 0, the “Corn plant response rating” value [8, 31] was 0 and the “Corn plant response rating” value [8, 24] was 2. The “Plant response rating (0 to 10; 0 is no effect, 10 is complete control), Corn” value ([8]; Rate 250 g/ha, Postemergence) was 0, the “Corn plant response rating” value [8, 25] was 0 and the “Morningglory plant response rating” value [9, 21] was 0. For the same molecule, the “Morningglory plant response rating” value [9, 22] was 0, the “Plant response rating, Morningglory” value [9, 23] was 0 and the “Morningglory plant response rating” value [9, 24] was 0. The “Plant response rating (0 to 10; 0 is no effect, 10 is complete control), Morningglory” value ([9]; Rate 250 g/ha, Postemergence) was 7, the “Morningglory plant response rating” value [9, 25] was 10 and the “Wild oats plant response rating” value [10, 21] was 2. The “Wild oats plant response rating” value [10, 22] was 5, the “Plant response rating, Wild oats” value [10, 23] was 6 and the “Wild oats plant response rating” value [10, 24] was 4. For the same molecule, the “Wild oats plant response rating” value [10, 25] was 3, the “Wheat plant response rating” value [11, 21] was 0 and the “Wheat plant response rating” value [11, 22] was 4. The “Plant response rating, Wheat” value [11, 23] was 7, the “Wheat plant response rating” value [11, 24] was 4 and the “Wheat plant response rating” value [11, 25] was 6. The “Velvetleaf plant response rating” value [12, 21] was 2, the “Velvetleaf plant response rating” value [12, 22] was 5 and the “Plant response rating, Velvetleaf” value [12, 23] was 7. The “Velvetleaf plant response rating” value [12, 24] was 5, the “Velvetleaf plant response rating” value [12, 25] was 0 and the “Sugarbeets plant response rating” value [13, 21] was 0. The “Sugarbeets plant response rating” value [13, 22] was 5, the “Plant response rating, Sugarbeets” value [13, 23] was 7 and the “Sugarbeets plant response rating” value [13, 24] was 2. For the same molecule, the “Sugarbeets plant response rating” value [13, 25] was 2, the “B. signalgrass plant response rating” value [14, 21] was 0 and the “B. signalgrass plant response rating” value [14, 22] was 7. The “Plant response rating, B. signalgrass” value [14, 23] was 8, the “B. signalgrass plant response rating” value [14, 30] was 0 and the “B. signalgrass plant response rating” value ([14]; Rate 125 g/ha, Postemergence, scale 0 (no effect) to 10 (complete control)) was 0. The “B. signalgrass plant response rating” value [14, 24] was 4, the “Plant response rating (0 to 10; 0 is no effect, 10 is complete control), B. signalgrass” value ([14]; Rate 250 g/ha, Postemergence) was 4 and the “B. signalgrass plant response rating” value [14, 25] was 8. For the same molecule, the “Bedstraw plant response rating” value [15, 21] was 0, the “Bedstraw plant response rating” value [15, 22] was 3 and the “Plant response rating, Bedstraw” value [15, 23] was 10. The “Bedstraw plant response rating” value [15, 30] was 2, the “Bedstraw plant response rating” value [15, 31] was 4 and the “Bedstraw plant response rating” value [15, 24] was 3. For the same molecule, the “Plant response rating (0 to 10; 0 is no effect, 10 is complete control), Bedstraw” value ([15]; Rate 250 g/ha, Postemergence) was 7, the “Bedstraw plant response rating” value [15, 25] was 8 and the “Redroot pigweed plant response rating” value [16, 21] was 0. For the same molecule, the “Redroot pigweed plant response rating” value [16, 22] was 7, the “Plant response rating, Redroot pigweed” value [16, 23] was 10 and the “Redroot pigweed plant response rating” value [16, 24] was 2. For the same molecule, the “Plant response rating (0 to 10; 0 is no effect, 10 is complete control), Redroot pigweed” value ([16]; Rate 250 g/ha, Postemergence) was 2, the “Redroot pigweed plant response rating” value [16, 25] was 3 and the “Blackgrass plant response rating” value [17, 21] was 6. The “Blackgrass plant response rating” value [17, 22] was 8, the “Plant response rating, Blackgrass” value [17, 23] was 8 and the “Blackgrass plant response rating” value [17, 30] was 1. For the same molecule, the “Blackgrass plant response rating” value [17, 31] was 5, the “Blackgrass plant response rating” value [17, 24] was 8 and the “Plant response rating (0 to 10; 0 is no effect, 10 is complete control), Blackgrass” value ([17]; Rate 250 g/ha, Postemergence) was 7. For the same molecule, the “Blackgrass plant response rating” value [17, 25] was 7, the “Rice plant response rating” value [18, 26] was 0 and the “Rice plant response rating” value [18, 27] was 0. The “Rice plant response rating” value [18, 28] was 0, the “Rice plant response rating” value [18, 29] was 0 and the “Plant response rating (0 to 10; 0 is no effect, 10 is complete control), Nutsedge” value ([19]; Rate 250 g/ha) was 0. For the same molecule, the “Nutsedge plant response rating” value ([19]; Rate 500 g/ha, scale 0 to 10, 0 no effect, 10 complete control) was 0, the “S. Flatsedge plant response rating” value [20, 26] was 0 and the “S. Flatsedge plant response rating” value [20, 27] was 0. The “S. Flatsedge plant response rating” value [20, 28] was 0 and the “S. Flatsedge plant response rating” value [20, 29] was 0.
